The values that follow come from patent US20230265151A1, “GIP/GLP1 CO-AGONIST COMPOUNDS” (priority 2020, published 2023).

Like-named read-outs stand apart in the source and are kept apart here. Some results are limits rather than exact numbers.

Type in all cases: cell-based
One assay concerns the target T1, hGIPR (Homo sapiens, UniProt P48546).
T1 construct: expressed in transfected cells
T1 sequence (P48546 22-466): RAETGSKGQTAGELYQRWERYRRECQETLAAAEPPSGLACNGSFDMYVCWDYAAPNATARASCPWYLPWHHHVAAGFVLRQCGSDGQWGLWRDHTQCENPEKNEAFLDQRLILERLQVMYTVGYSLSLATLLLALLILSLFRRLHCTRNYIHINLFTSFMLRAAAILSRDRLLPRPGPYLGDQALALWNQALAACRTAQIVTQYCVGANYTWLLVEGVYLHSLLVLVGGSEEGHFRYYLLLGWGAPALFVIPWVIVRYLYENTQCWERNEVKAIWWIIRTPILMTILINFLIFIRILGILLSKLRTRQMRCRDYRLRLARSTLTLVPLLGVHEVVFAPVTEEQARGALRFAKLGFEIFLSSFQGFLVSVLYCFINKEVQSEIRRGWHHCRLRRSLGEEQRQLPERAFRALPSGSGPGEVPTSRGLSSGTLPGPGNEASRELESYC
In words: Functional cAMP formation (HTRF) in HEK-293 clonal cells expressing hGIPR, 0.1% bovine casein, without or with 1.0% human serum albumin. To be noted: for EC50: geometric mean, read-out: hGIPR EC50, nM (SEM, n); for Emax: read-out: hGIPR Emax, % ± SEM. In outline: (§1)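 Cells were stimulated with peptide for 30 min at 37° C, then intracellular cAMP was measured by competitive HTRF (665/620 nm ratio) and converted to nM using a cAMP standard curve. Relative EC50 and Emax came from four-parameter logistic fits of percent maximal response against peptide concentration.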
Background: Cyclic AMP is a second messenger, typically raised through Gs and lowered through Gi signalling.

Another assay deals with T2, hGCGR (Homo sapiens, UniProt P47871).
T2 construct: expressed in transfected cells
T2 sequence (P47871 26-477): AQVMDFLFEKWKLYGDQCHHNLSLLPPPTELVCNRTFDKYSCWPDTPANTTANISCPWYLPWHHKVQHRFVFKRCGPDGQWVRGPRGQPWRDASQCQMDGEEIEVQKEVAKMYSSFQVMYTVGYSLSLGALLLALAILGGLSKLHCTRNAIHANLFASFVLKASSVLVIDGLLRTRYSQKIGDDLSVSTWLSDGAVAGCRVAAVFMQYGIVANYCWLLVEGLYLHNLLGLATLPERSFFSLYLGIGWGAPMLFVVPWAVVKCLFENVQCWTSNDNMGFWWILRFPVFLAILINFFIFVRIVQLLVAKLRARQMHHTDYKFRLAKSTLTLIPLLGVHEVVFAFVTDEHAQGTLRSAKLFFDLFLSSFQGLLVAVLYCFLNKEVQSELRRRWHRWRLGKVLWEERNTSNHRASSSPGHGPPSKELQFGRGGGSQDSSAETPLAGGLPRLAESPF
In words: Functional cAMP formation (HTRF) in HEK-293 clonal cells expressing hGCGR, 0.1% bovine casein, without or with 1.0% human serum albumin. To be noted: read-out: hGCGR EC50, nM (SEM, n). Summed up: as §1

The next assay deals with hGLP-1R (Homo sapiens, UniProt P43220). In words: Functional cAMP formation (HTRF) in HEK-293 clonal cells expressing hGLP-1R, 0.1% bovine casein, without or with 1.0% human serum albumin. Further details: expressed in transfected cells. To be noted: 37° C.; for Emax: read-out: hGLP-1R Emax, % ± SEM; for EC50: cAMP, 0.1% bovine casein (no human serum albumin), geometric mean, read-out: hGLP-1R EC50, nM (SEM, n). Summed up:
as §1

[1] abbreviates: HEK293, 0.1% bovine casein and 1.0% human serum albumin, 37° C., percent of maximal response to GIP(1-42)NH2.
The mark [2] stands for this setting: HEK293, percent of maximal response to GIP(1-42)NH2, 37° C., 0.1% bovine casein, arithmetic mean.
The mark [3] stands for this setting: 0.1% bovine casein and 1.0% human serum albumin, 37° C., geometric mean.
Where [4] appears, read: cAMP, incubated at 37° C., 0.1% bovine casein (no human serum albumin), geometric mean.
[5] abbreviates: HEK293, percent of maximal response to GLP-1(7-36)NH2, 0.1% bovine casein, arithmetic mean.
Where [6] appears, read: cAMP, 37° C., 0.1% bovine casein (no human serum albumin).
The mark [7] stands for this setting: cAMP, 37° C., 0.1% bovine casein (no human serum albumin), geometric mean.

hGLP-1R, sequence (P43220 24-463): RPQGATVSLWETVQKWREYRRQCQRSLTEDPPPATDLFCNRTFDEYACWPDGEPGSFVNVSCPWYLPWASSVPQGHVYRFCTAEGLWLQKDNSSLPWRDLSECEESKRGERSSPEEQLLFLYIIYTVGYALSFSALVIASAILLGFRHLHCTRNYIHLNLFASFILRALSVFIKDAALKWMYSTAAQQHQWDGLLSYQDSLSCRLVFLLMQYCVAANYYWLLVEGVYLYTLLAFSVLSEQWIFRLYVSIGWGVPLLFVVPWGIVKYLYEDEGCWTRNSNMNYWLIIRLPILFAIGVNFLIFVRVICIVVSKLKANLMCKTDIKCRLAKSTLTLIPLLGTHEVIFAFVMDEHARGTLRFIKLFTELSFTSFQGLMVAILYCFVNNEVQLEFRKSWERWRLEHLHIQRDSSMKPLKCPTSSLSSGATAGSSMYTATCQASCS

With `CC[C@H](C)[C@H](NC(=O)[C@H](CC(C)C)NC(=O)[C@](C)(Cc1ccc(O)cc1)NC(=O)[C@@H](CCC(=O)O)NC(=O)[C@@H](NC(=O)[C@H](Cc1ccccc1)NC(=O)[C@H](Cc1ccncc1)NC(=O)C(C)(C)NC(=O)[C@H](CCC(N)=O)NC(=O)[C@H](C)NC(=O)[C@H](CCCCNC(=O)COCCOCCNC(=O)COCCOCCNC(=O)CC[C@H](NC(=O)CCCCCCCCCCCCC(=O)O)C(=O)O)NC(=O)[C@H](CCCN)NC(=O)[C@H](CC(=O)O)NC(=O)[C@H](CC(C)C)NC(=O)[C@](C)(CC(C)C)NC(=O)[C@@H](NC(=O)[C@H](CO)NC(=O)[C@H](Cc1ccncc1)NC(=O)[C@H](CC(=O)O)NC(=O)[C@H](CO)NC(=O)[C@@H](NC(=O)[C@](C)(Cc1ccccc1F)NC(=O)[C@@H](NC(=O)CNC(=O)[C@H](CCC(=O)O)NC(=O)C(C)(C)NC(=O)[C@@H](N)Cc1ccc(O)cc1)[C@@H](C)O)[C@@H](C)O)[C@@H](C)CC)[C@@H](C)CC)C(=O)N[C@@H](CCC(=O)O)C(=O)NCC(=O)NCC(=O)N[C@@H](CCCCNC(=O)COCCOCCNC(=O)COCCOCCNC(=O)CC[C@H](NC(=O)CCCCCCCCCCCCC(=O)O)C(=O)O)C(=O)N[C@@H](CO)C(=O)N[C@@H](CO)C(=O)NCC(=O)N[C@@H](C)C(=O)N1CCC[C@H]1C(=O)N1CCC[C@H]1C(=O)N1CCC[C@H]1C(=O)N[C@@H](CO)C(N)=O` [Example 157], the concentration for a half-maximal effect (EC50) at hGIPR (0.1% bovine casein and 1.0% human serum albumin, 37° C.) was 0.718 nM; on hGIPR (cAMP, incubated at 37° C., 0.1% bovine casein (no human serum albumin)) it was 0.0286 nM; on hGCGR (setting [3]) it was > 9950 nM; on hGCGR (setting [4]), > 9950 nM. The Emax worked out at 89.6 ± 3.39% at hGIPR (setting [1]), 98.8 ± 1.33% at hGIPR (setting [2]) and 98.5 ± 4.73% at hGLP-1R (setting [5]).

Regarding `CCCCCCCCCCCC(=O)N[C@@H](CCC(=O)NCCOCCOCC(=O)NCCCC[C@H](NC(=O)[C@H](CCCN)NC(=O)[C@H](CC(=O)O)NC(=O)[C@H](CC(C)C)NC(=O)[C@](C)(CC(C)C)NC(=O)[C@@H](NC(=O)C(C)(C)NC(=O)[C@H](CCCCNC(=O)COCCOCCNC(=O)CC[C@H](NC(=O)CCCCCCCCCCC)C(=O)O)NC(=O)[C@H](CC(=O)O)NC(=O)[C@H](CO)NC(=O)[C@@H](NC(=O)[C@](C)(Cc1ccccc1F)NC(=O)[C@@H](NC(=O)CNC(=O)[C@H](CCC(=O)O)NC(=O)C(C)(C)NC(=O)[C@@H](N)Cc1ccc(O)cc1)[C@@H](C)O)[C@@H](C)O)[C@@H](C)CC)C(=O)N[C@@H](C)C(=O)N[C@@H](CCC(N)=O)C(=O)NC(C)(C)C(=O)N[C@@H](CCC(=O)O)C(=O)N[C@@H](Cc1ccccc1)C(=O)N[C@H](C(=O)N[C@H](CCC(=O)O)C(=O)N[C@@](C)(Cc1ccc(O)cc1)C(=O)N[C@@H](CC(C)C)C(=O)N[C@H](C(=O)N[C@@H](CCC(=O)O)C(=O)NCC(=O)NCC(=O)N1CCC[C@H]1C(=O)N[C@@H](CO)C(=O)N[C@@H](CO)C(=O)NCC(=O)N[C@@H](C)C(=O)N1CCC[C@H]1C(=O)N1CCC[C@H]1C(=O)N1CCC[C@H]1C(=O)N[C@@H](CO)C(N)=O)[C@@H](C)CC)[C@@H](C)CC)C(=O)O` [Example 425], the maximal effect (Emax) turned out to be 89.9% on hGIPR (HEK293, cAMP, 37° C., 0.1% bovine casein and 1.0% human serum albumin, percent of maximal response to GIP(1-42)NH2); 97.6% at hGIPR (HEK293, cAMP, 37° C., 0.1% bovine casein, percent of maximal response to GIP(1-42)NH2, arithmetic mean). The EC50 on hGIPR (setting [6]) is 0.00943 nM; on hGCGR (setting [7]) it was > 9950 nM; at hGCGR (cAMP, 37° C., 0.1% bovine casein and 1.0% human serum albumin, geometric mean (SEM, n)), > 9950 nM; at hGLP-1R it was 0.0965 nM.

`CCCCCCCCCCCC(=O)N[C@@H](CCC(=O)NCCOCCOCC(=O)NCCOCCOCC(=O)NCCCC[C@H](NC(=O)[C@H](CCCN)NC(=O)[C@H](CC(=O)O)NC(=O)[C@H](CC(C)C)NC(=O)[C@](C)(CC(C)C)NC(=O)[C@@H](NC(=O)[C@H](CO)NC(=O)[C@H](Cc1ccncc1)NC(=O)[C@H](CC(=O)O)NC(=O)[C@H](CO)NC(=O)[C@@H](NC(=O)[C@](C)(Cc1ccccc1F)NC(=O)[C@@H](NC(=O)CNC(=O)[C@H](CCC(=O)O)NC(=O)C(C)(C)NC(=O)[C@@H](N)Cc1ccc(O)cc1)[C@@H](C)O)[C@@H](C)O)[C@@H](C)CC)C(=O)N[C@@H](C)C(=O)N[C@@H](CCC(N)=O)C(=O)NC(C)(C)C(=O)N[C@@H](CCCN)C(=O)N[C@@H](Cc1ccccc1)C(=O)N[C@H](C(=O)N[C@H](CCC(=O)O)C(=O)N[C@@](C)(Cc1ccc(O)cc1)C(=O)N[C@@H](CC(C)C)C(=O)N[C@H](C(=O)N[C@@H](CCCCNC(=O)COCCOCCNC(=O)COCCOCCNC(=O)CC[C@H](NC(=O)CCCCCCCCCCC)C(=O)O)C(=O)NCC(=O)NCC(=O)N1CCC[C@H]1C(=O)N[C@@H](CO)C(=O)N[C@@H](CO)C(=O)NCC(=O)N[C@@H](C)C(=O)N1CCC[C@H]1C(=O)N1CCC[C@H]1C(=O)N1CCC[C@H]1C(=O)N[C@@H](CO)C(N)=O)[C@@H](C)CC)[C@@H](C)CC)C(=O)O` [Example 299]: the EC50 on hGIPR (setting [6]) is 0.0104 nM; at hGCGR (setting [3]) it was > 9950 nM; at hGCGR (setting [7]), > 9950 nM; on hGLP-1R, 0.126 nM.

For the compound `CC[C@H](C)[C@H](NC(=O)[C@H](CC(C)C)NC(=O)[C@](C)(Cc1ccc(O)cc1)NC(=O)[C@@H](CCC(=O)O)NC(=O)[C@@H](NC(=O)[C@H](Cc1ccccc1)NC(=O)[C@H](CCC(=O)O)NC(=O)C(C)(C)NC(=O)[C@H](CCC(N)=O)NC(=O)[C@H](C)NC(=O)[C@H](CCCCNC(=O)COCCOCCNC(=O)COCCOCCNC(=O)CC[C@H](NC(=O)CCCCCCCCCCCCC(=O)O)C(=O)O)NC(=O)[C@H](CCCN)NC(=O)[C@H](CC(=O)O)NC(=O)[C@H](CC(C)C)NC(=O)[C@](C)(CC(C)C)NC(=O)[C@@H](NC(=O)[C@@H](NC(=O)[C@H](Cc1ccncc1)NC(=O)[C@H](CC(=O)O)NC(=O)[C@H](CO)NC(=O)[C@@H](NC(=O)[C@](C)(Cc1ccccc1F)NC(=O)[C@@H](NC(=O)CNC(=O)[C@H](CCC(=O)O)NC(=O)C(C)(C)NC(=O)[C@@H](N)Cc1ccc(O)cc1)[C@@H](C)O)[C@@H](C)O)C(C)(C)C)[C@@H](C)CC)[C@@H](C)CC)C(=O)N[C@@H](CCC(=O)O)C(=O)NCC(=O)NCC(=O)N[C@@H](CCCCNC(=O)COCCOCCNC(=O)COCCOCCNC(=O)CC[C@H](NC(=O)CCCCCCCCCCCCC(=O)O)C(=O)O)C(=O)N[C@@H](CO)C(=O)N[C@@H](CO)C(=O)NCC(=O)N[C@@H](C)C(=O)N1CCC[C@H]1C(=O)N1CCC[C@H]1C(=O)N1CCC[C@H]1C(=O)N[C@@H](CO)C(N)=O` [Example 202], the Emax at hGIPR (setting [1]) was found to be 75.3%; at hGIPR (setting [2]) it was 86%; at hGLP-1R (HEK293, 0.1% bovine casein and 1.0% human serum albumin, percent of maximal response to GLP-1(7-36)NH2) it was 109%; at hGLP-1R (setting [5]) it was 92.2%. The EC50 on hGCGR (setting [3]) and at hGCGR (setting [4]) was > 9950 nM each time.

The EC50 is the concentration that produces a half-maximal response. By Emax is commonly meant the maximal effect, on the per cent scale that the assay sets.
